Experimental data as given in patent US9732119B2, “Immunomodulators” (BRISTOL-MYERS SQUIBB COMPANY, priority 2014, dated 2017).
Non-standard residues stand in square brackets, D forms with d. Residues, ends and D or L forms follow the SMILES beside them. Trp(1-CH2COOH) = N[C@@H](Cc1cn(CC(=O)O)c2ccccc12)C(=O)O; Hyp = O=C(O)[C@@H]1C[C@@H](O)CN1; NMeNle = CCCC[C@H](NC)C(=O)O; NMeA = CN[C@@H](C)C(=O)O; Dab = NCC[C@H](N)C(=O)O; Dap = NC[C@H](N)C(=O)O; βAla = NCCC(=O)O

The compounds below were run against T1, PD-1-Ig binding to PD-L1-TVMV-His (PD-L1-His) (Homo sapiens, UniProt Q9NZQ7) (assay: PD-1/PD-L1 Homogenous Time-Resolved Fluorescence (HTRF) binding assay). Details: PD-1-Ig (20 nM) / PD-L1-His (10 nM); range classes.
T1 construct: hPDL1(19-239)-TVMV-His; made in house; host or cells: HEK293T cells
Excerpt: The ability of the macrocyclic peptides of the present disclosure to bind to PD-L1 was investigated using a PD-1/PD-L1 Homogenous Time-Resolved Fluorescence (HTRF) binding assay.
Homogenous Time-Resolved Fluorescence (HTRF) Assays of Binding of Soluble PD-1 to Soluble PD-L1. Soluble PD-1 and soluble PD-L1 refers to proteins with carboxyl-end truncations that remove the transmembrane-spanning regions and are fused to heterologous sequences, specifically the Fc portion of the human immunoglobuling G sequence (Ig) or the hexahistidine epitope tag (His). All binding studies were performed in an HTRF assay buffer consisting of dPBS supplemented with 0.1% (w/v) bovine serum albumin and 0.05% (v/v) Tween-20. For the PD-1-Ig/PD-L1-His binding assay, inhibitors were pre-incubated with PD-L1-His (10 nM final) for 15 m in 4 μl of assay buffer, followed by addition of PD-1-Ig (20 nM final) in 1 μl of assay buffer and further incubation for 15 m. PD-L1 fusion proteins from either human, cynomologous macaques, mouse, or other species were used. HTRF detection was achieved using europium crypate-labeled anti-Ig monoclonal antibody (1 nM final) and allophycocyanin (APC) labeled anti-His monoclonal antibody (20 nM final). Antibodies were diluted in HTRF detection buffer and 5 μl was dispensed on top of binding reaction. […] Additional binding assays were established between PD-1-Ig/PD-L2-His (20 and 5 nM, respectively), CD80-His/PD-L1-Ig (100 and 10 nM, respectively) and CD80-His/CTLA4-Ig (10 and 5 nM, respectively).
Recombinant Proteins. […] Human PD-L2-His (Sino Biologicals), CD80-His (Sino Biologicals), CTLA4-Ig (RnD Systems) were all obtained through commercial sources.

T1 sequence (Q9NZQ7 with tags, fused parts or gaps): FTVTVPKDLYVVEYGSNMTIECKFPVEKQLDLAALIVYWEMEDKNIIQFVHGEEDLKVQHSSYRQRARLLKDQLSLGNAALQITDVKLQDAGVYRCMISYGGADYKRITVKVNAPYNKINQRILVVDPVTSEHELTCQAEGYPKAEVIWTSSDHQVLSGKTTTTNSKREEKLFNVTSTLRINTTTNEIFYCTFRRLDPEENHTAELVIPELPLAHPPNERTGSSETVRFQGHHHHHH

SMILES	IC50
CCCC[C@H]1C(=O)N(C)[C@@H](CCCC)C(=O)NC(CC(C)C)C(=O)N[C@H](C(=O)NCC(N)=O)CNCC(=O)N[C@@H](Cc2ccc(O)cc2)C(=O)N(C)[C@@H](C)C(=O)N[C@@H](CC(N)=O)C(=O)N2CCC[C@H]2C(=O)N[C@@H](CN)C(=O)N[C@@H](CC(C)C)C(=O)N2C[C@H](O)C[C@H]2C(=O)N[C@@H](Cc2c[nH]c3ccccc23)C(=O)N[C@@H](CCN)C(=O)N[C@@H](Cc2c[nH]c3ccccc23)C(=O)N1C (some centres unmarked) [Example 1029]	10 to 99 nM
CCCC[C@H]1C(=O)N(C)[C@@H](CCCC)C(=O)NC(CC(C)C)C(=O)N[C@H](C(=O)NCC(N)=O)CNCC(=O)N[C@@H](Cc2ccc(O)cc2)C(=O)N(C)[C@@H](C)C(=O)N[C@@H](CC(N)=O)C(=O)N2CCC[C@H]2C(=O)N[C@@H](CN)C(=O)N[C@@H](CC(C)C)C(=O)N2C[C@H](O)C[C@H]2C(=O)N[C@@H](Cc2c[nH]c3ccccc23)C(=O)N[C@@H](CCN)C(=O)N[C@@H](Cc2cn(CC(=O)O)c3ccccc23)C(=O)N1C (some centres unmarked) [Example 1030]	1 to 9.9 nM
CCCC[C@H]1C(=O)N(C)[C@@H](CCCC)C(=O)NC(CC(C)C)C(=O)N[C@H](C(=O)NCC(N)=O)CNCC(=O)N[C@@H](Cc2ccc(O)cc2)C(=O)N(C)[C@@H](C)C(=O)N[C@@H](CC(N)=O)C(=O)N2CCC[C@H]2C(=O)N[C@@H](CN)C(=O)N[C@@H](CCC(=O)O)C(=O)N2C[C@H](O)C[C@H]2C(=O)N[C@@H](Cc2c[nH]c3ccccc23)C(=O)N[C@@H](CCN)C(=O)N[C@@H](Cc2cn(CC(=O)O)c3ccccc23)C(=O)N1C (some centres unmarked) [Example 1031]	1 to 9.9 nM
CCCC[C@H]1C(=O)N(C)[C@@H](CCCC)C(=O)NC(CC(C)C)C(=O)N[C@H](C(=O)NCC(N)=O)CNCC(=O)N[C@@H](Cc2ccc(O)cc2)C(=O)N(C)[C@@H](C)C(=O)N[C@@H](CC(N)=O)C(=O)N2CCC[C@H]2C(=O)N[C@@H](CN)C(=O)N[C@@H](CC(C)C)C(=O)N2C[C@H](O)C[C@H]2C(=O)N[C@@H](Cc2c[nH]c3ccccc23)C(=O)N[C@@H](CCCCN)C(=O)N[C@@H](Cc2cn(CC(=O)O)c3ccccc23)C(=O)N1C (some centres unmarked) [Example 1032]	1 to 9.9 nM
CCCC[C@H]1C(=O)N(C)[C@@H](CCCC)C(=O)NC(CC(C)C)C(=O)N[C@H](C(N)=O)CNCC(=O)N[C@@H](Cc2ccc(O)cc2)C(=O)N(C)[C@@H](C)C(=O)N[C@@H](CC(N)=O)C(=O)N2CCC[C@H]2C(=O)N[C@@H](CN)C(=O)N[C@@H](CC(C)C)C(=O)N2C[C@H](O)C[C@H]2C(=O)N[C@@H](Cc2c[nH]c3ccccc23)C(=O)N[C@@H](CCCCN)C(=O)N[C@@H](Cc2cn(CC(=O)O)c3ccccc23)C(=O)N1C (some centres unmarked) [Example 1033]	10 to 99 nM
CCCC[C@H]1C(=O)N(C)[C@@H](CCCC)C(=O)NC(CC(C)C)C(=O)N[C@H](C(N)=O)CNCC(=O)N[C@@H](Cc2ccc(O)cc2)C(=O)N(C)[C@@H](C)C(=O)N[C@@H](CC(N)=O)C(=O)N2CCC[C@H]2C(=O)N[C@@H](CN)C(=O)N[C@@H](CC(C)C)C(=O)N2C[C@H](O)C[C@H]2C(=O)N[C@@H](Cc2c[nH]c3ccccc23)C(=O)N[C@@H](CCN)C(=O)N[C@@H](Cc2cn(CC(=O)O)c3ccccc23)C(=O)N1C (some centres unmarked) [Example 1034]	1 to 9.9 nM
CCCC[C@H]1C(=O)N(C)[C@@H](CCCC)C(=O)NC(CC(C)C)C(=O)N[C@H](C(N)=O)CNCC(=O)N[C@@H](Cc2ccc(O)cc2)C(=O)N(C)[C@@H](C)C(=O)N[C@@H](CC(N)=O)C(=O)N2CCC[C@H]2C(=O)N[C@@H](CN)C(=O)N[C@@H](CCC(=O)O)C(=O)N2C[C@H](O)C[C@H]2C(=O)N[C@@H](Cc2c[nH]c3ccccc23)C(=O)N[C@@H](CCN)C(=O)N[C@@H](Cc2cn(CC(=O)O)c3ccccc23)C(=O)N1C (some centres unmarked) [Example 1035]	1 to 9.9 nM
CCCC[C@H]1C(=O)N(C)[C@@H](CCCC)C(=O)N[C@@H](CC(C)C)C(=O)N[C@H](C(=O)NCC(N)=O)CNCC(=O)N[C@@H](Cc2ccc(O)cc2)C(=O)N(C)[C@@H](C)C(=O)N[C@@H](CC(N)=O)C(=O)N2CCC[C@H]2C(=O)N[C@@H](CN)C(=O)N[C@@H](CC(C)C)C(=O)N2C[C@H](O)C[C@H]2C(=O)N[C@@H](Cc2c[nH]c3ccccc23)C(=O)N[C@@H](CCCN)C(=O)N[C@@H](Cc2cn(CC(=O)O)c3ccccc23)C(=O)N1C [Example 1036]	1 to 9.9 nM
CCCC[C@H]1C(=O)N(C)[C@@H](CCCC)C(=O)N[C@@H](CC(C)C)C(=O)N[C@H](C(=O)NCC(N)=O)CNCC(=O)N[C@@H](Cc2ccc(O)cc2)C(=O)N2CCCC[C@H]2C(=O)N[C@@H](CC(N)=O)C(=O)N2CCC[C@H]2C(=O)N[C@@H](CN)C(=O)N[C@@H](CC(C)C)C(=O)N2C[C@H](O)C[C@H]2C(=O)N[C@@H](Cc2c[nH]c3ccccc23)C(=O)N[C@@H](CCN)C(=O)N[C@@H](Cc2cn(CC(=O)O)c3ccccc23)C(=O)N1C [Example 1037]	1 to 9.9 nM

The next lines start with the values.

IC50	SMILES
1 to 9.9 nM	CCCC[C@H]1C(=O)N(C)[C@@H](CCCC)C(=O)N[C@@H](CC(C)C)C(=O)N[C@H](C(N)=O)CNCC(=O)N[C@@H](Cc2ccc(O)cc2)C(=O)N2CCCC[C@H]2C(=O)N[C@@H](CC(N)=O)C(=O)N2CCC[C@H]2C(=O)N[C@@H](CN)C(=O)N[C@@H](CC(C)C)C(=O)N2C[C@H](O)C[C@H]2C(=O)N[C@@H](Cc2c[nH]c3ccccc23)C(=O)N[C@@H](CCN)C(=O)N[C@@H](Cc2cn(CC(=O)O)c3ccccc23)C(=O)N1C [Example 1038]
1 to 9.9 nM	CCCC[C@H]1C(=O)N(C)[C@@H](CCCC)C(=O)N[C@@H](CC(C)C)C(=O)N[C@H](C(=O)NCC(N)=O)CNCC(=O)N[C@@H](Cc2ccc(OC)cc2)C(=O)N(C)[C@@H](C)C(=O)N[C@@H](CC(N)=O)C(=O)N2CCC[C@H]2C(=O)N[C@@H](CN)C(=O)N[C@@H](CC(C)C)C(=O)N2C[C@H](O)C[C@H]2C(=O)N[C@@H](Cc2c[nH]c3ccccc23)C(=O)N[C@@H](CCN)C(=O)N[C@@H](Cc2cn(CC(=O)O)c3ccccc23)C(=O)N1C [Example 1039]
1 to 9.9 nM	CCCC[C@H]1C(=O)N(C)[C@@H](CCCC)C(=O)N[C@@H](CC(C)C)C(=O)N[C@H](C(=O)NCC(N)=O)CNCC(=O)N[C@@H](Cc2ccc(OC)cc2)C(=O)N2CCCC[C@H]2C(=O)N[C@@H](CC(N)=O)C(=O)N2CCC[C@H]2C(=O)N[C@@H](CN)C(=O)N[C@@H](CC(C)C)C(=O)N2C[C@H](O)C[C@H]2C(=O)N[C@@H](Cc2c[nH]c3ccccc23)C(=O)N[C@@H](CCN)C(=O)N[C@@H](Cc2cn(CC(=O)O)c3ccccc23)C(=O)N1C [Example 1040]
1 to 9.9 nM	CCCC[C@H]1C(=O)N(C)[C@@H](CCCC)C(=O)N[C@@H](CC(C)C)C(=O)N[C@H](C(=O)NCC(N)=O)CNCC(=O)N[C@@H](Cc2ccc(OC)cc2)C(=O)N(C)[C@@H](C)C(=O)N[C@@H](CC(N)=O)C(=O)N2CCC[C@H]2C(=O)N[C@@H](CN)C(=O)N[C@@H](CCC(=O)O)C(=O)N2C[C@H](O)C[C@H]2C(=O)N[C@@H](Cc2c[nH]c3ccccc23)C(=O)N[C@@H](CCN)C(=O)N[C@@H](Cc2cn(CC(=O)O)c3ccccc23)C(=O)N1C [Example 1041]
10 to 99 nM	CCCC[C@H]1C(=O)N(C)[C@@H](CCCC)C(=O)N[C@@H](CC(C)C)C(=O)N[C@H](C(N)=O)CNCC(=O)N[C@@H](Cc2ccc(OC)cc2)C(=O)N2CCCC[C@H]2C(=O)N[C@@H](CC(N)=O)C(=O)N2CCC[C@H]2C(=O)N[C@@H](CN)C(=O)N[C@@H](CC(C)C)C(=O)N2C[C@H](O)C[C@H]2C(=O)N[C@@H](Cc2c[nH]c3ccccc23)C(=O)N[C@@H](CCN)C(=O)N[C@@H](Cc2cn(CC(=O)O)c3ccccc23)C(=O)N1C [Example 1042]
1 to 9.9 nM	CCCC[C@H]1C(=O)N(C)[C@@H](CCCC)C(=O)N[C@@H](CC(C)C)C(=O)NCC(=O)NCC(=O)N[C@@H](Cc2ccc(O)cc2)C(=O)N(C)[C@@H](C)C(=O)N[C@@H](CC(N)=O)C(=O)N2CCC[C@H]2C(=O)N[C@@H](CN)C(=O)N[C@@H](CC(C)C)C(=O)N2C[C@H](O)C[C@H]2C(=O)N[C@@H](Cc2c[nH]c3ccccc23)C(=O)N[C@@H](CCN)C(=O)N[C@@H](Cc2c[nH]c3ccccc23)C(=O)N1C [Example 5001] (cyclo([Dab]W[NMeNle][NMeNle]LGGY[NMeA]NP[Dap]L[Hyp]W))
1 to 9.9 nM	CCCC[C@H]1C(=O)N(C)[C@@H](CCCC)C(=O)N[C@@H](CC(C)C)C(=O)NCC(=O)NCC(=O)N[C@@H](Cc2ccc(O)cc2)C(=O)N(C)[C@@H](C)C(=O)N[C@@H](CC(N)=O)C(=O)N2CCC[C@H]2C(=O)N[C@@H](CN)C(=O)N[C@@H](CC(C)C)C(=O)N2C[C@H](O)C[C@H]2C(=O)N[C@@H](Cc2c[nH]c3ccccc23)C(=O)N[C@@H](CCN)C(=O)N[C@@H](Cc2cn(CC(=O)O)c3ccccc23)C(=O)N1C [Example 5002] (cyclo([Dab][Trp(1-CH2COOH)][NMeNle][NMeNle]LGGY[NMeA]NP[Dap]L[Hyp]W))
100 to 10000 nM	CCCC[C@H]1C(=O)N(C)[C@@H](CCCC)C(=O)N[C@@H](CC(C)C)C(=O)NCCC(=O)N[C@@H](Cc2ccc(O)cc2)C(=O)N(C)[C@@H](C)C(=O)N[C@@H](CC(N)=O)C(=O)N2CCC[C@H]2C(=O)N[C@@H](Cc2c[nH]cn2)C(=O)N[C@@H](CC(C)C)C(=O)N2C[C@H](O)C[C@H]2C(=O)N[C@@H](Cc2c[nH]c3ccccc23)C(=O)NCC(=O)N[C@@H](Cc2c[nH]c3ccccc23)C(=O)N1C [Example 5003] (cyclo(GW[NMeNle][NMeNle]L[βAla]Y[NMeA]NPHL[Hyp]W))
